{
  "source": "patent US20240294478A1",
  "about": "“ANTI-CANCER COMPOUNDS AND METHODS OF USE” (YALE UNIVERSITY, priority 2021, published 2024)",
  "key": {"[1]": {"tested_on": "BJ fibroblast cells (normal cells)", "assay": "Short-term cell viability, normal fibroblasts", "assay_type": "cell-based, human", "conditions": "compared with TMZ", "method": "FIG. 1B: Short-term viability assay curves for KL-50 in DLD1 MSH6-deficient cells pre-treated with 0.01% DMSO control (CTR) or 10 μM O^6BG (+O^6BG) for 1 h prior to KL-50 addition. […] Short-term viability assay curves for (FIG. 1E) KL-50 in HCT116 MLH1−/−cells or (FIG. 1F) HCT116 cells complemented with chromosome 3 carrying wildtype MLH1 (+Chr3) pre-treated with 0.01% DMSO control or 10 μM O^6BG (+O^6BG) for 1 h prior to KL-50 addition. […] For these figures, points, mean; error bars, SD; n>3 technical replicates.\n(§1) Short-term Cell Viability Assay. Cells were seeded in 96-well plates at 1000 or 2000 cells/well and allowed to adhere at 23° C. for 60 min and then incubated overnight at 37° C. Cells were treated with indicated concentrations of compounds in triplicate for 4-6 days prior to fixation with 3.7% paraformaldehyde and nuclear staining with 1 μg/mL Hoechst 33342 dye. Cells were imaged on a Cytation 3 imaging reader (BioTek) and quantified using CellProfiler software. For in vitro short-term growth delay experiments, IC50 values were determined from the nonlinear regression equation, [inhibitor] vs normalized response with variable slope."}, "[2]": {"tested_on": "LN229 MGMT+/−, MMR+/− isogenic lines", "assay": "Short-term cell viability with ROS scavenger NAC", "assay_type": "cell-based, human", "conditions": "increasing concentrations of NAC", "method": "(§2) Columns, mean; error bars, SD; n=2 independent analyses. For (A) and (C), points, mean; error bars, SD; n=3 technical replicates.\nas §1"}, "[3]": {"tested_on": "linearized pUC19 plasmid DNA", "assay": "Melting temperature assay", "assay_type": "biochemical", "conditions": "100 or 500 μM for 3 h", "method": "as §2\nMelting Temperature Assay. Linearized pUC19 DNA (750 ng), prepared as described above, was incubated with the indicated concentration of either MMS or KL-50 adjusted in a final volume of 18 μL in 100 mM Tris buffer (pH 7.4) for 3 h. Drug stock concentrations were made in DMSO such that each reaction contained a fixed 5% DMSO concentration. Afterwards, 1 μL each of 20×SYBR Green dye (Invitrogen) and 20×ROX reference dye (Invitrogen) was added and melting temperature analysis was run on a StepOnePlus RT PCR System (Applied Biosciences) to generate melting temperature curves."}, "[4]": {"tested_on": "PEO4 (BRCA2+) and PEO1 (BRCA2−/−) cells", "assay": "Short-term viability assay, PEO1/PEO4 model +/- O6BG", "assay_type": "cell-based, human", "conditions": "PE01/4 model", "method": "FIGS. 8A-8K. (FIG. 8A) Change in percent cells with 1 micronuclei from baseline (DMSO control) after treatment as in FIGS. 5A and 5C. […] (FIG. 8B) Short-term viability assay curves for KL-50 in PD20 cells, deficient in FANCD2 (FANCD2−/−) or complemented with FANCD2 (+FANCD2). (FIG. 8C) Short-term viability assay curves for KL-50 in PEO4 (BRCA2+) and PEO1 (BRCA2−/−) cells pre-treated with 0.01% DMSO control or 10 μM O^6BG (+O^6BG) for 1 h prior to KL-50 addition. (FIG. 8D) Short-term viability assay curves for KL-50 in DLD1 BRCA2+/− and BRCA2−/−cells pre-treated with 0.01% DMSO control or 10 μM O^6BG (+O^6BG) for 1 h prior to KL-50 addition. For FIGS. 8B-8D, points, mean; error bars, SD; n=3 technical replicates. […] The % FANCD2 ubiquitination (% FANCD2 Ub) is quantified as the background-corrected integrated band intensity of the upper band divided by the sum of the background-corrected integrated band intensities of the upper and lower bands. […]\nShort-term Cell Viability Assay. […] Cells were imaged on a Cytation 3 imaging reader (BioTek) and quantified using CellProfiler software. For in vitro short-term growth delay experiments, IC50 values were determined from the nonlinear regression equation, [inhibitor] vs normalized response with variable slope."}, "[5]": {"tested_on": "LN229 MGMT−/MMR+ and MGMT−/MMR− flank tumors", "assay": "Flank tumor second study: regimens, schedules, routes", "assay_type": "in vivo, mouse", "conditions": "5, 15, 25 mg/kg; MWF x 3 weeks or M-F x 1 week; PO or IP", "from_the_text": "FIGS. 9A-91: KL-50 is safe and efficacious on both MGMT−/MMR+ and MGMT−/MMR-flank tumors over a wide range of treatment regimens and conditions. […] (FIG. 9C) Mean body weight of mice during LN229 flank tumor experiments. (FIG. 9D) Kaplan-Meier analysis of LN229 MGMT−/MMR− xenograft flank tumor-bearing mice to determine survival rate based on death, removal from study if mouse body weight loss exceeded 20% of initial body weight, or if tumor volume exceeded 2000 mm^3. […] (FIGS. 9H-91) Xenograft LN229 MGMT−/MMR+ and LN229 MGMT−/MSH6—flank tumors with a larger average starting tumor size of −400 mm^3 and −350 mm^3 respectively, treated with 3 weekly cycles of P.O administration of 10% cyclodextrin (n=4) or KL-50 (n=4, 3 cycles of 25 mg/kg on Monday, Wednesday, and Friday). The study period was limited by control groups which had to be euthanized for exceeding the ethical maximum allowed tumor size, thus ending the study. In all panels, points, mean; error bars, SEM; *, P<0.05; **, P<0.01; ***, P<0.001; ****, P<0.0001; ns, not significant.\nIn a second study, mice were randomized and administered either KL-50 or vehicle (10% cyclodextrin) by oral gavage or intraperitoneal injection on either M-F x 1 or MWF×3 cycles at 5, 15, or 25 mgs/kg. Caliper measurements were obtained during the dosing period and at least two weeks following treatment. […]"}},
  "data": [
    {"smiles": "NC(=O)c1ncn2c(=O)n(CCF)nnc12", "note": "[KL-50]", "values": [
      {"measurement": "cytotoxicity in normal human fibroblast cells", "setting": "[1]", "value": "No increase in toxicity"},
      {"measurement": "rescue of toxicity by ROS scavenger NAC", "setting": "[2]", "value": "did not result in rescue of KL-50 toxicity"},
      {"measurement": "change in DNA melting temperature", "setting": "[3]", "value": "comparable changes in measured DNA melting temperature"},
      {"measurement": "therapeutic index (TI)", "setting": "[4]", "value": 62, "unit": "fold"},
      {"measurement": "efficacy and toxicity across regimens", "setting": "[5]", "value": "effective and non-toxic"}
    ]}
  ]
}
